Experimental data taken from patent US10039729B2, “Use of kukoamine A and kukoamine B” (Tianjin Chase Sun Pharmaceutical Co., Ltd., priority 2010, dated 2018).

Key:
RAW264.7 cells = assay: Binding and cellular internalization of LPS and CpG DNA to RAW264.7 cells (confocal microscopy); format: cell-based, murine; conditions: KB 50, 100 and 200 μM, dose-dependent
Procedure: 21.1 Methods: RAW264.7 cells were cultured in 20 mm cell culture dishes for confocal microscopy applications, and diluted to 5×10^5/ml in DMEM supplemented with 10% (v/v) NCS; 1 ml of the above suspension was transferred into each cell culture dishes and cultured at 37° C. in a 5% CO2 humidified incubator for 4 h; for the purpose of experiment three groups were established, medium group, stimulation group and KB treatment group; the concentration and loading patterns of each group were consistent with Embodiment 12; the cells were then fixed with 4% paraform for 10 min after 30 min of culture, and washed thrice with PBS; nucleus were stained with DAPI (100 ng·mL^−1) for 2 min, washed with PBS thrice, mounted with a solution of 50% glycerol and 50% PBS, and stored in dark place until intensity and distribution of fluorescence of LPS and CpG DNA on RAW264.7 cells surface were observed under a confocal microscopy.

[1] = tested on: mice challenged by heat-killed Escherichia coli; assay: Protection on mice challenged by lethal dose of heat-killed Escherichia coli; format: in vivo, Kunming mice
Procedure: Preparation of heat-killed Escherichia coli (E. coli) ATCC 35218: Bacteria culture was performed according to Clinical Laboratory Procedures. Single bacterial colony of E. coli from LB agar plates were picked and transferred into 10 mL sterile liquid of LB broth using a sterile inoculating loop, and cultivated at 37° C. in a shaker (250 rpm). After medium become turbid, these culture medium were then transferred to 2000 mL of fresh LB medium and cultivated at 37° C. in a shaker (250 rpm) for 12 h. The suspension was collected, transferred into 1000 ml centrifuge tube, and centrifuged at 5000 rpm for 15 min. The supernatant was discarded. The bacteria were collected, washed and resuspended into sterile saline, and then centrifuged again under the same condition. Above-mentioned process was repeated thrice. The bacteria pellet was resuspended with a pipet in 50 ml sterile saline, transferred into 100 ml saline bottle, and boiled in electric furnace for 30 min. Then the suspension of heat-killed Escherichia coli was obtained. The suspension of E. coli was diluted by 100 fold, and measured OD value at 600 nm on nucleic acid protein analyzer. Conversion was made according to the regression equation of OD value and concentration, and the suspension was diluted according to the conversion result. Then the operating fluids for mice injection were obtained.
Observation of CL-4b protection on mice challenged by heat-killed Escherichia coli: A total of […] Kunming mice (18˜20 g), half male and half female, were divided into three groups randomly: CL-4b control group, heat-killed E. coli group and CL-4b treatment group. Each group has 10 mice, half male and half female. CL-4b control group was injected with CL-4b (60 mg/kg) and sterile saline; heat-killed E. coli group was injected with heat-killed Escherichia coli (1.0×10^10 CFU/ml) and sterile saline; CL-4b treatment group was injected with CL-4 ([…]) at 10 min after heat-killed E. coli injection. The injection volume of each solution was 200 μl per 20 g body weight via tail vein. […]
(1) Single dose experiment: Experiment 1: A total of 40 Kunming mice (18-20 g), half male and half female, were divided into two groups randomly, heat-killed E. coli control group and KB (30 mg/kg) treatment group; each group has 20 mice; after animal weighing, heat-killed E. coli group was injected with heat-killed Escherichia coli (200 μl per 20 g body weight) and sterile saline (200 μl per 20 g body weight); KB treatment group was injected with KB (200 μl per 20 g body weight) at 5 min after heat-killed E. coli was injected; the injection doses of heat-killed E. coli were 1.0×10^11 CFU/kg, and injection doses of KB were 30 mg/kg. […]

[2] = tested on: murine peritoneal macrophages; assay: Vitality of murine peritoneal macrophages (MTT method); format: cell-based; conditions: KB or KB plus LPS or CpG DNA; 24 h
Procedure: (2) Influence on vitality of murine peritoneal macrophages: Experiment methods are as above. Influences of the combination of KB with LPS or CpG DNA on vitality of murine peritoneal macrophages were assayed.

[3] = single dose KB 60 mg/kg, E. coli 1.0×10^11 CFU/kg

NCCCN(CCCCNCCCNC(=O)CCc1ccc(O)c(O)c1)C(=O)CCc1ccc(O)c(O)c1 [KB, Kukoamine B]
green fluorescence intensity of 5-FAM (CpG DNA) on the surface of and inside RAW264.7 cells (RAW264.7 cells; 5-FAM-CpG DNA 10 μg/ml): significantly weakened | green fluorescence intensity of FITC (LPS) on the surface of and inside RAW264.7 cells (RAW264.7 cells; FITC-LPS 200 ng/ml): significantly weakened | survival rates, multiple dose ([1]; KB 1.25, 2.5 and 5 mg/kg every 8 h for 3 days): improve survival rates | mortality rate in 7 days, single dose ([1]; KB 15, 30 and 60 mg/kg 5 min after heat-killed E. coli): decreased with the increasing doses of KB | protective effect, KB given after 2 h (4, 6 and 8 h) [1, 3]: no longer has a significant protective effect | survival rate, KB given 2 h after heat-killed E. coli [1, 3]: still can increase the survival rate | vitality of murine peritoneal macrophages [2]: The same result was also obtained
